Patent US10280167B2, “Purine derivatives for the treatment of viral infections” (JANSSEN SCIENCES IRELAND UC, priority 2011, dated 2019)
Read-outs that look alike come from different tables or passages of the source.

What was measured:
Assay type in all cases: cell-based
[1] = test system: Huh-7 luc/neo HCV replicon cells with conditioned media from PBMC; experiment: Interferon production in human PBMC (PBMC-HUH7_EC50), HCV replicon readout with conditioned media; conditions: Homo sapiens, Huh-7; concentration applied to PBMCs giving 50% reduction of replicon luciferase activity
Experimental: Measurement of Interferon Production in Human PBMC (PBMC-HUH7_EC50)
Activation of human TLR7 results in robust production of interferon by plasmacytoid dendritic cells present in human blood. The potential of compounds to induce interferon was evaluated by looking at the antiviral activity in the HCV replicon system upon incubation with conditioned media from peripheral blood mononuclear cells (PBMC). The HCV replicon assay is based on a bicistronic expression construct, as described by Lohmann et al. (Science (1999) 285: 110-113; Journal of Virology (2003) 77: 3007-15 3019) with modifications described by Krieger et al. (Journal of Virology (2001) 75: 4614-4624). The assay utilized the stably transfected cell line Huh-7 luc/neo harboring an RNA encoding a bicistronic expression construct comprising the wild type NS3-NS5B regions of HCV type 1b translated from an Internal Ribosome Entry Site (IRES) from encephalomyocarditis virus (EMCV), preceded by a reporter gene (Firefly-luciferase) and a selectable marker gene (neoR, neomycine phosphotransferase). The construct is flanked by 5′ and 3′ NTRs (non-translated regions) from HCV type 1b. Continued culture of the replicon cells in the presence of G418 (neoR) is dependent on the replication of the HCV RNA. The stably transfected replicon cells that replicate HCV RNA autonomously and to high levels, encoding inter alia luciferase, were used for profiling of the conditioned cell culture media. Briefly, PBMCs were prepared from buffy coats of at least two donors using a standard Ficoll centrifugation protocol. Isolated PBMCs were resuspended in RPMI medium supplemented with 10% human AB serum and 2×10^5 cells/well were dispensed into 384-well plates containing compounds (70 μL total volume). After overnight incubation, […] was transferred to 384-well plates containing 2.2×10^3 replicon cells/well in 30 μL (plated the day before). Following 24 hours of incubation, replication was measured by assaying luciferase activity using 40 μL/well Steady Lite Plus substrate (Perkin Elmer) and measured with ViewLux ultraHTS microplate imager (Perkin Elmer). The inhibitory activity of each compound on the Huh7-luc/neo cells were reported as EC50 values, defined as the compound concentration applied to the PBMCs resulting in a 50% reduction of luciferase activity which in turn indicates the degree of replication of the replicon RNA on transfer of a defined amount of PBMC culture medium. Recombinant interferon α-2a (Roferon-A) was used as a standard control compound.

[2] = test system: HEK-ISRE-luc cells with conditioned media from PBMC; experiment: Interferon production in human PBMC (PBMC HEK-ISRE-luc LEC); conditions: Homo sapiens, PBMC, read-out: PBMC HEK-ISRE-luc (LEC)
Experimental: Measurement of Interferon Production in Human PBMC (PBMC HEK-ISRE-Luc LEC)
Activation of human TLR7 results in robust production of interferon by plasmacytoid dendritic cells present in human blood. The potential of compounds to induce interferon was evaluated by determination of interferon in the conditioned media from peripheral blood mononuclear cells (PBMC). The presence of interferon in the samples was determined, using an interferon reporter cell line stably expressing an interferon-stimulated responsive elements (ISRE)-luc reporter construct. The ISRE element with sequence GAAACTGAAACT (SEQ ID NO: 1) is highly responsive to the STAT1-STAT2-IRF9 transcription factor, which becomes activated upon binding of IFN-I to the IFN receptor. Briefly, PBMCs were prepared from buffy coats of at least two donors using a standard Ficoll centrifugation protocol. Isolated PBMCs were resuspended in RPMI medium supplemented with 10% human AB serum and 2×10^5 cells/well were dispensed into 384-well plates containing compounds (70 μL total volume). After overnight incubation of the PBMCs with the compounds, 10 μL of supernatant was transferred to 384-well plates containing 5×10^3 HEK-ISRE-luc cells/well in 30 μL (plated the day before). Following 24 hours of incubation, activation of the ISRE elements was measured by assaying luciferase activity using 40 μL/well Steady Lite Plus substrate (Perkin Elmer) and measured with ViewLux ultraHTS microplate imager (Perkin Elmer). The stimulating activity of each compound on the HEK-ISRE-luc cells was reported as LEC. The LEC in turn indicates the degree of ISRE activation on transfer of a defined amount of PBMC culture medium.
Recombinant interferon alfa-2a (Roferon-A) was used as a standard control compound.

[3] = target: human TLR7 (Homo sapiens (Human), UniProt Q9NYK1); experiment: Reporter assay for TLR7 activity, HEK293 transiently transfected with wild type TLR7 and NFκB-luc; conditions: lowest effective concentration; 48 h transfection
Sequence of human TLR7 (Q9NYK1 27-1049): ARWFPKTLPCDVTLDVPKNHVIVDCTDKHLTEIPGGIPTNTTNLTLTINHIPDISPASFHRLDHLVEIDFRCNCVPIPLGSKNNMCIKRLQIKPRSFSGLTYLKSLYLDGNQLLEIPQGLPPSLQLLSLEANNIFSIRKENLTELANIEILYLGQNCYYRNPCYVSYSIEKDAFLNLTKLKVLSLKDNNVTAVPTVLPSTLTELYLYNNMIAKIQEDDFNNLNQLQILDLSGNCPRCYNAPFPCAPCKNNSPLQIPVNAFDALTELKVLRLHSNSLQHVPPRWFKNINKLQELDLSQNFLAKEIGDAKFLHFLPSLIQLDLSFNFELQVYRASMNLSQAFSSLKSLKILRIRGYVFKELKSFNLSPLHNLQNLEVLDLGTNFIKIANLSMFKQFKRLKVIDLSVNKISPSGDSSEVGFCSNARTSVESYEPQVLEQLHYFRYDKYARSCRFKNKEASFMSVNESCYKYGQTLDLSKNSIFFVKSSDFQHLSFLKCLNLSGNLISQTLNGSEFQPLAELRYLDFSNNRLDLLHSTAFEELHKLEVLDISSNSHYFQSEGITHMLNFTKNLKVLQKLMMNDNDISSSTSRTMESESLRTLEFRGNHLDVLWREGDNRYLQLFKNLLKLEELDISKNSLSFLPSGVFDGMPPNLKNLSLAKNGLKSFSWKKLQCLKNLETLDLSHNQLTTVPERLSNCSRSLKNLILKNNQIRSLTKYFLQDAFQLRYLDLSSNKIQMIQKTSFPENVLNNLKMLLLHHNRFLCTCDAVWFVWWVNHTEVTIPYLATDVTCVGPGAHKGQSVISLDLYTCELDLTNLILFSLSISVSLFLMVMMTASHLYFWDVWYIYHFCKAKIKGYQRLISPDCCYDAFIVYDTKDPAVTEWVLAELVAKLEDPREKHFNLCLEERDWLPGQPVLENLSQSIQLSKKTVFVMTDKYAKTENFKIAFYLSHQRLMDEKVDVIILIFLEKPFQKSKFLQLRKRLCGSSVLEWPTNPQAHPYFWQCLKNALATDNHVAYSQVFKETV

[4] = test system: human TLR7 dIRR2 mutant; experiment: Reporter assay for TLR7 activity, HEK293 transfected with mutant TLR7 (dIRR2 deletion) and NFκB-luc; conditions: lowest effective concentration; 48 h transfection

Compound | EC50 [1] | minimal effective concentration ([2]; lowest effective concentration) | TLR7-wt_LEC 48 h [3] | TLR7-dIRR2_LEC 48 h [4] | minimal effective concentration [2]
Cc1nc(-c2nc(N)c3[nH]c(=O)n(Cc4ccccc4)c3n2)[nH]c1C [Compound 7] | 640 nM | 0.88 µM | >25 µM | 1.46 µM | –
Cc1c[nH]c(-c2nc(N)c3[nH]c(=O)n(Cc4ccccc4)c3n2)n1 [Compound 8] | 170 nM | 0.25 µM | 5.91 µM | 0.17 µM | –
Cc1ccc(Cn2c(=O)[nH]c3c(N)nc(-c4ncc[nH]4)nc32)cn1 [Compound 9] | 50 nM | 0.03 µM | 0.88 µM | 0.07 µM | –
COCCn1ccnc1-c1nc(N)c2[nH]c(=O)n(Cc3ccccc3)c2n1 [Compound 11] | 330 nM | 0.32 µM | 5.36 µM | 0.19 µM | –
Cn1ccnc1-c1nc(N)c2[nH]c(=O)n(Cc3ccccc3)c2n1 [Compound 12] | 590 nM | 0.34 µM | 8.08 µM | 0.3 µM | –
Nc1nc(-c2ccn[nH]2)nc2c1[nH]c(=O)n2Cc1ccccc1 [Compound 23] | 130 nM | 0.12 µM | 0.23 µM | 0.007 µM | –
Nc1nc(-c2ncc[nH]2)nc2c1[nH]c(=O)n2Cc1ccc2c(c1)CNCC2 [Compound 24] | 46 nM | 0.03 µM | 1.81 µM | 0.11 µM | –
Nc1nc(-c2ncc[nH]2)nc2c1[nH]c(=O)n2Cc1cccc(CN2CCCC2)c1 [Compound 25] | 6 nM | 0.007 µM | 2.46 µM | 0.39 µM | –
Cc1ccc(Cn2c(=O)[nH]c3c(N)nc(-c4nc(C5CC5)c[nH]4)nc32)cn1 [Compound 26] | 5 nM | 0.006 µM | 2.42 µM | 0.21 µM | –
Nc1nc(-c2nccn2CCO)nc2c1[nH]c(=O)n2Cc1ccccc1 [Compound 27] | 800 nM | 0.43 µM | 6.03 µM | 0.63 µM | –
CC(C)(C)c1c[nH]c(-c2nc(N)c3[nH]c(=O)n(Cc4ccccc4)c3n2)n1 [Compound 28] | > 23800 nM | > 23.8 µM | >25 µM | 8.77 µM | –
CC(C)c1c[nH]c(-c2nc(N)c3[nH]c(=O)n(Cc4ccccc4)c3n2)n1 [Compound 29] | 1660 nM | 0.82 µM | – | 1.58 µM | –
CCc1c[nH]c(-c2nc(N)c3[nH]c(=O)n(Cc4ccccc4)c3n2)n1 [Compound 30] | 170 nM | 0.12 µM | 12.71 µM | 0.14 µM | –
Nc1nc(-c2nc(C(F)(F)F)c[nH]2)nc2c1[nH]c(=O)n2Cc1ccccc1 [Compound 31] | 1300 nM | 2.2 µM | 23.23 µM | 0.51 µM | –
Nc1nc(-c2cnco2)nc2c1[nH]c(=O)n2Cc1ccccc1 [Compound 32] | 1510 nM | 0.97 µM | 6.5 µM | 0.97 µM | –
Cc1noc(-c2nc(N)c3[nH]c(=O)n(Cc4ccccc4)c3n2)n1 [Compound 33] | 810 nM | 0.52 µM | 21.66 µM | 0.98 µM | –
COCCc1nnc(-c2nc(N)c3[nH]c(=O)n(Cc4ccccc4)c3n2)o1 [Compound 34] | 690 nM | 0.49 µM | >25 µM | 1.21 µM | –
Cc1cnn(-c2nc(N)c3[nH]c(=O)n(Cc4ccccc4)c3n2)c1 [Compound 35] | 170 nM | 0.1 µM | 0.36 µM | 0.033 µM | –

Compound | EC50 [1] | minimal effective concentration ([2]; lowest effective concentration) | TLR7-wt_LEC 48 h [3] | TLR7-dIRR2_LEC 48 h [4] | minimal effective concentration [2]
COC(=O)c1cccc(Cn2c(=O)[nH]c3c(N)nc(-n4cccn4)nc32)c1 [Compound 37] | – | 0.01 µM | 0.05 µM | – | –
Nc1nc(-n2cccn2)nc2c1[nH]c(=O)n2Cc1cccc(C(=O)O)c1 [Compound 38] | – | > 25 µM | 0.38 µM | – | –
Nc1nc(-n2cccn2)nc2c1[nH]c(=O)n2Cc1cccc(CO)c1 [Compound 39] | – | 0.01 µM | 0.05 µM | – | –
CCOP(=O)(Cc1cccc(Cn2c(=O)[nH]c3c(N)nc(-n4cccn4)nc32)c1)OCC [Compound 40] | – | – | 0.03 µM | – | 0.01 µM
Cl.Nc1nc(-n2cccn2)nc2c1[nH]c(=O)n2Cc1cccc(CP(=O)(O)O)c1 [Compound 41] | – | 0.4 µM | 0.03 µM | – | –
Nc1nc(-c2ccn[nH]2)nc2c1[nH]c(=O)n2Cc1cn2ccccc2n1 [Compound 43] | – | 0.15 µM | 0.50 µM | – | –
COC(=O)c1cccc(Cn2c(=O)[nH]c3c(N)nc(-c4ccn[nH]4)nc32)c1 [Compound 44] | – | 0.04 µM | 0.10 µM | – | –
Nc1nc(-c2ccn[nH]2)nc2c1[nH]c(=O)n2Cc1cccc(C(=O)O)c1 [Compound 45] | – | 1.37 µM | 0.58 µM | – | –
Nc1nc(-c2ccn[nH]2)nc2c1[nH]c(=O)n2Cc1cccc(CO)c1 [Compound 46] | – | 0.03 µM | 0.21 µM | – | –
CCOP(=O)(CCCn1ccnc1-c1nc(N)c2[nH]c(=O)n(Cc3ccccc3)c2n1)OCC [Compound 47] | – | – | 14.12 µM | – | 1.64 µM
Nc1nc(-n2cccn2)nc2c1[nH]c(=O)n2Cc1cn2ccccc2n1 [Compound 48] | – | 0.01 µM | 0.01 µM | – | –
COc1ccnc(Cn2c(=O)[nH]c3c(N)nc(-n4cccn4)nc32)c1OC [Compound 49] | – | 0.06 µM | 0.31 µM | – | –
Cc1ccc(Cn2c(=O)[nH]c3c(N)nc(-n4cccn4)nc32)cn1 [Compound 50] | – | 0.01 µM | 0.03 µM | – | –
Nc1nc(-c2cc(C3CC3)n[nH]2)nc2c1[nH]c(=O)n2Cc1ccccc1 [Compound 51] | – | 0.17 µM | 0.16 µM | – | –
Nc1nc(-c2ccn(CCO)n2)nc2c1[nH]c(=O)n2Cc1ccccc1 [Compound 52] | – | 0.42 µM | 4.42 µM | 0.41 µM | –
Cc1cn[nH]c1-c1nc(N)c2[nH]c(=O)n(Cc3ccccc3)c2n1 [Compound 53] | 760 nM | – | 3.17 µM | 0.36 µM | –
Nc1nc(-c2ncc[nH]2)nc2c1[nH]c(=O)n2Cc1cccc(C(=O)N2CCCC2)c1 [Compound 55] | 1270 nM | 1.16 µM | – | 0.06 µM | –
